Data set [1] in a line: Charge class Q, dominant calculated charge state at pH 7.4. It counts as physicochemical.
For data set [2] the following is noted: PAMPA; for Pm^7.4: pH 7.4. Background: In PAMPA a lipid-coated filter parts donor from acceptor wells.
Data set [3] is described as follows: In combo PAMPA-BBB model, calculated log Po in situ.
Setting [4] is: dominant calculated concentration fraction of the drug in a charge state.

Several values for one entry are separate records, joined by “and”; a condition that tells them apart may be missing. Equal values may be shown once. Read-outs that look alike come from different tables or passages of the source.

With `CN(C)CCC=C1c2ccccc2CCc2ccccc21` [Amitriptyline], in data set [1] (setting [4]), the “Q (charge class)” value was “+”. For the same compound, in data set [2], the “log Po” value is given as −1.27, the “log Ppara” value is −6.38 and the “Pm^7.4” value came to 435. Also, the “obs–calc (log Po^in situ)” value in data set [3] (efflux inhibition mdr1a(−/−)) was 0.1. Besides, the “obs–calc (log Po^in situ)” value in data set [3] (no efflux inhibition) is −0.3 and −0.2.

With `Clc1ccc2c(c1)C(N1CCNCC1)=Nc1ccccc1O2` [Amoxapine], the “Q (charge class)” value in data set [1] (setting [4]) is “+”. In data set [2], the “log PABL” value was −3.26, the “log Po” value is −2.37, the “log Ppara” value is recorded as −5.98 and the “Pm^7.4” value came to 289. Also, the “obs–calc (log Po^in situ)” value in data set [3] (no efflux inhibition) is on record as −0.4.

As to `Cc1cc(=O)n(-c2ccccc2)n1C` [Antipyrine], the “Q (charge class)” value in data set [1] is listed as 0. Besides, in data set [2], the “log PABL” value is −4.46, the “log Po” value is reported as −6.14 and the “log Ppara” value was −6.86.

Turning to `CC(NC(C)(C)C)C(=O)c1cccc(Cl)c1` (stereo not drawn) [Bupropion], the “Q (charge class)” value in data set [1] (setting [4]) was “+”. Moreover, in data set [2], the “Pm^7.4” value is listed as 101. The “obs–calc (log Po^in situ)” value in data set [3] (no efflux inhibition) is 0.9.

`Cn1c(=O)c2c(ncn2C)n(C)c1=O` [Caffeine]: in data set [1] (setting [4]), the “Q (charge class)” value is 0. Further, the “Pm^7.4” value in data set [2] amounted to 1.

For `NC(=O)N1c2ccccc2C=Cc2ccccc21` [Carbamazepine], the “Q (charge class)” value in data set [1] (setting [4]) is 0. Moreover, in data set [2], the “log PABL” value is −3.25, the “log Ppara” value was −6.09 and the “Pm^7.4” value came to 29. In addition, the “obs–calc (log Po^in situ)” value in data set [3] (efflux inhibition mdr1a(−/−)) was 0.6.

As to `O=C(O)COCCN1CCN(C(c2ccccc2)c2ccc(Cl)cc2)CC1` (stereo not drawn) [Cetirizine], the “Q (charge class)” value in data set [1] (setting [4]) is “±”.

On to `CN(C)CCCN1c2ccccc2Sc2ccc(Cl)cc21` [Chlorpromazine], for which the “Q (charge class)” value in data set [1] (setting [4]) is listed as “+”. In addition, in data set [2], the “log PABL” value is on record as −3.10, the “log Po” value is listed as −1.46, the “log Ppara” value is reported as −5.96 and the “Pm^7.4” value is 496. Also, the “obs–calc (log Po^in situ)” value in data set [3] (efflux inhibition mdr1a(−/−)) is 0.2. Also, the “obs–calc (log Po^in situ)” value in data set [3] (no efflux inhibition) was 0.0 and 0.2.

As for `CN(C)CCCC1(c2ccc(F)cc2)OCc2cc(C#N)ccc21` (stereo not drawn) [Citalopram], the “Q (charge class)” value in data set [1] (setting [4]) was “+”. The “Pm^7.4” value in data set [2] was 99.

On to `CN1CCN(C2=Nc3cc(Cl)ccc3Nc3ccccc32)CC1` [Clozapine], for which the “Q (charge class)” value in data set [1] (setting [4]) is given as “+”. Besides, in data set [2], the “log PABL” value was −3.37, the “log Po” value is listed as −2.58, the “log Ppara” value is given as −5.74 and the “Pm^7.4” value stood at 632. Also, the “obs–calc (log Po^in situ)” value in data set [3] (efflux inhibition mdr1a(−/−)) is given as −0.5.

For `COc1cc2c(c(OC)c1OC)-c1ccc(OC)c(=O)cc1[C@@H](NC(C)=O)CC2` [Colchicine], the “Q (charge class)” value in data set [1] is 0.

Regarding `C[C@]12C[C@H](O)[C@H]3[C@@H](CCC4=CC(=O)CC[C@@]43C)[C@@H]1CC[C@@H]2C(=O)CO` [Corticosterone], the “Q (charge class)” value in data set [1] (setting [4]) was 0.

Consider `CN1C(=O)CN=C(c2ccccc2)c2cc(Cl)ccc21` [Diazepam], for which, in data set [1], the “Q (charge class)” value is 0.

For `C[C@H]1O[C@@H](O[C@H]2[C@@H](O)C[C@H](O[C@H]3[C@@H](O)C[C@H](O[C@H]4CC[C@@]5(C)[C@H](CC[C@@H]6[C@@H]5C[C@@H](O)[C@]5(C)[C@@H](C7=CC(=O)OC7)CC[C@]65O)C4)O[C@@H]3C)O[C@@H]2C)C[C@H](O)[C@@H]1O` [Digoxin], in data set [1], the “Q (charge class)” value is reported as 0.

In the case of `COc1ccc([C@@H]2Sc3ccccc3N(CCN(C)C)C(=O)[C@@H]2OC(C)=O)cc1` [Diltiazem], the “Q (charge class)” value in data set [1] (setting [4]) is listed as “+”.

Regarding `CN(C)CCOC(c1ccccc1)c1ccccc1` [Diphenhydramine], the “Q (charge class)” value in data set [1] (setting [4]) is given as “+”.

`OCCN(CCO)c1nc(N2CCCCC2)c2nc(N(CCO)CCO)nc(N3CCCCC3)c2n1` [Dipyridamole]: in data set [1] (setting [4]), the “Q (charge class)” value is recorded as 0.

As for `COc1cc([C@@H]2c3cc4c(cc3[C@@H](O[C@@H]3O[C@@H]5CO[C@@H](C)O[C@H]5[C@H](O)[C@H]3O)[C@H]3COC(=O)[C@H]23)OCO4)cc(OC)c1O` [Etoposide], the “Q (charge class)” value in data set [1] (setting [4]) is 0. Besides, in data set [2], the “log PABL” value is recorded as −4.62, the “log Po” value is given as −6.17, the “log Ppara” value is reported as −6.85 and the “Pm^7.4” value is on record as 0.6. Moreover, the “obs–calc (log Po^in situ)” value in data set [3] (efflux inhibition mdr1a(−/−)) is given as 0.1. For the same compound, the “obs–calc (log Po^in situ)” value in data set [3] (no efflux inhibition) was −0.1.

Turning to `CC(C)(C(=O)O)c1ccc(C(O)CCCN2CCC(C(O)(c3ccccc3)c3ccccc3)CC2)cc1` (stereo not drawn) [Fexofenadine], the “Q (charge class)” value in data set [1] (setting [4]) was “±”.

For the compound `O=C(CCCN1CCC(O)(c2ccc(Cl)cc2)CC1)c1ccc(F)cc1` [Haloperidol], in data set [1] (setting [4]), the “Q (charge class)” value is on record as “+”. In data set [2], the “log PABL” value is on record as −3.38, the “log Po” value is −2.06, the “log Ppara” value is −4.68 and the “Pm^7.4” value turned out to be 464. In addition, the “obs–calc (log Po^in situ)” value in data set [3] (no efflux inhibition) was −0.3.

For `C[C@]12CCC(=O)C=C1CC[C@@H]1[C@@H]2[C@@H](O)C[C@@]2(C)[C@H]1CC[C@]2(O)C(=O)CO` [Hydrocortisone], the “Q (charge class)” value in data set [1] (setting [4]) is on record as 0.

Turning to `CC(C)Cc1ccc(C(C)C(=O)O)cc1` (stereo not drawn) [Ibuprofen], in data set [1] (setting [4]), the “Q (charge class)” value is “−”.

For the compound `COc1ccc2c(c1)c(CC(=O)O)c(C)n2C(=O)c1ccc(Cl)cc1` [Indomethacin], the “Q (charge class)” value in data set [1] (setting [4]) is recorded as “−”. Further, in data set [2], the “log PABL” value is −2.67, the “log Po” value was −2.67, the “log Ppara” value was −5.68 and the “Pm^7.4” value came to 3.

On to `CCN(CC)CC(=O)Nc1c(C)cccc1C` [Lidocaine], for which the “Q (charge class)” value in data set [1] (setting [4]) is given as “+”.

Take `CC[C@H](C)C(=O)O[C@H]1C[C@@H](C)C=C2C=C[C@H](C)[C@H](CC[C@@H](O)C[C@@H](O)CC(=O)O)[C@H]21` [Lovastatin Acid]: the “Q (charge class)” value in data set [1] (setting [4]) is listed as “−”.

`CCN(CC)CCNC(=O)c1cc(Cl)c(N)cc1OC` [Metoclopramide]: in data set [1] (setting [4]), the “Q (charge class)” value was “+”. Also, in data set [2], the “Pm^7.4” value was 380.

In the case of `CN1CC[C@]23c4c5ccc(O)c4O[C@H]2[C@@H](O)C=C[C@H]3[C@H]1C5` [Morphine], the “Q (charge class)” value in data set [1] was “+”.

Turning to `COc1ccc2cc([C@H](C)C(=O)O)ccc2c1` [Naproxen], the “Q (charge class)” value in data set [1] (setting [4]) is “−”.

With `CC(=O)O[C@H]1C(=O)[C@@]2(C)[C@H]([C@H](OC(=O)c3ccccc3)[C@]3(O)C[C@H](OC(=O)[C@H](O)[C@@H](NC(=O)c4ccccc4)c4ccccc4)C(C)=C1C3(C)C)[C@]1(OC(C)=O)CO[C@@H]1C[C@@H]2O` [Paclitaxel], in data set [1] (setting [4]), the “Q (charge class)” value is reported as 0. Further, the “obs–calc (log Po^in situ)” value in data set [3] (difference observed minus calculated, external set, no efflux inhibition) was −1.9.

`CC(C)NCC(O)COc1cccc2ccccc12` (stereo not drawn) [Propranolol]: in data set [1] (setting [4]), the “Q (charge class)” value was “+”. Also, in data set [2], the “Pm^7.4” value was determined as 87.

As for `C=C[C@H]1C[N@@]2CC[C@H]1C[C@H]2[C@H](O)c1ccnc2ccc(OC)cc12` [Quinine], the “Q (charge class)” value in data set [1] (setting [4]) is listed as “+”.

Consider `Cc1nc2n(c(=O)c1CCN1CCC(c3noc4cc(F)ccc34)CC1)CCCC2` [Risperidone], for which the “Q (charge class)” value in data set [1] is given as “+”. In addition, the “obs–calc (log Po^in situ)” value in data set [3] is listed as 0.8.

For the compound `C[C@]12CC[C@H]3[C@@H](CCC4=CC(=O)CC[C@@]43C)[C@@H]1CC[C@@H]2O` [Testosterone], the “Q (charge class)” value in data set [1] is reported as 0.

Turning to `Cn1c(=O)c2[nH]cnc2n(C)c1=O` [Theophylline], in data set [1], the “Q (charge class)” value is listed as 0.

As for `CCCCNC(=O)NS(=O)(=O)c1ccc(C)cc1` [Tolbutamide], in data set [1] (setting [4]), the “Q (charge class)” value is listed as “−”.

On to [D-Pen^2,5]-Enkephalin [DPDPE], for which, in data set [1], the “Q (charge class)” value was “±”.

The values above are taken from article PMC3034772 (Pharmaceutical research, 2010).
